Measured values as given in patent US12180207B2 (ARRAY BIOPHARMA INC., priority 2018, dated 2024).

Tests used:
[1] = biological target: dephosphorylated FGFR1 (SEQ ID NO: 1, amino acids 458 to 765) (Homo sapiens (Human), UniProt P11362); assay: FGFR enzyme binding assay (HTRF tracer displacement), FGFR1; conditions: 5 nM dephosphorylated FGFR1, average of multiple determinations if made
How it was run: (§1)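 Compounds were tested for displacement of a tracer from human FGFR kinase in a time-resolved FRET binding format. After 60 minutes at 22° C, signal was read at two wavelengths and converted to percent of control, normalised between untreated wells and 1 μM reference inhibitor.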

[2] = biological target: phosphorylated FGFR3 (SEQ ID NO: 5, amino acids 449 to 759) (Homo sapiens (Human), UniProt P22607); assay: FGFR enzyme binding assay (HTRF tracer displacement), FGFR3; conditions: 5 nM phosphorylated FGFR3, average of multiple determinations if made
How it was run: as §1

[3] = biological target: recombinant human FGFR1 catalytic domain (amino acids 308-731) (Homo sapiens (Human), UniProt P11362); assay: FGFR1 enzyme activity assay (LanthaScreen TR-FRET); format: biochemical; conditions: 20 min incubation at 22° C., average of multiple determinations if made, read-out: FGFR1 Enz FRET IC50
How it was run: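 His-tagged FGFR1 kinase domain with 100 nM Alexa Fluor 647-poly-GT peptide and ATP in pH 7.5 HEPES/MgCl2 buffer with 2% DMSO, 20 min at 22 °C. Quenched with EDTA plus 2 nM Eu-PY20 antibody and read after 60 min. IC50 comes from a 4-parameter fit of percent of control.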

[4] = biological target: recombinant human FGFR2 cytoplasmic domain (amino acids 403-822) (Homo sapiens (Human), UniProt P21802); assay: FGFR2 enzyme activity assay (LanthaScreen TR-FRET); format: biochemical; conditions: 15 μM ATP, 20 min incubation at 22° C., average of multiple determinations if made, read-out: FGFR2 Enz FRET IC50
How it was run: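 His-tagged FGFR2 cytoplasmic domain ([…]) with 100 nM Alexa Fluor 647-poly-GT peptide and 15 μM ATP in HEPES/MgCl2/Triton buffer, pH 7.5, 2% DMSO, 20 min at 22 °C. EDTA-quenched, Eu-PY20 antibody added, TR-FRET read after 60 min.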

[5] = biological target: recombinant human FGFR3 (amino acids R397-T806) (Homo sapiens (Human), UniProt P22607); assay: FGFR3 enzyme activity assay (LanthaScreen TR-FRET); format: biochemical; conditions: 25 μM ATP, 10 min incubation at 22° C., average of multiple determinations if made, read-out: FGFR3 Enz FRET IC50
How it was run: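 GST-HIS6-tagged human FGFR3 (R397-T806) was reacted with 100 nM Alexa Fluor 647-Poly-GT substrate and 25 μM ATP plus compound in HEPES/MgCl2/Triton buffer, pH 7.5, 2% DMSO, for 10 min at 22 °C.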

[6] = biological target: FGFR1 (SEQ ID NO: 1, amino acids 458-765) (Homo sapiens (Human), UniProt P11362); assay: LC/MS FGFR1 kobs assay (covalent protein modification); format: binding; conditions: 500 nM FGFR1, 3 μM compound
Protocol: The LC/MS FGFR1 and FGFR3 kobs assays were conducted as follows. […] At each time point, the reaction was quenched with 20 μL of 0.4% formic acid. The extent of protein modification by each compound was determined by LC/MS on an Agilent Technologies 6520 Q-TOF LC/MS. Protein signals were then automatically deconvoluted using Agilent Masshunter software. Deconvoluted mass signals were exported to Tibco Spotfire data analysis program for further processing and normalization.
Data analysis included five steps. First, the signals for the “DMSO Controls” were analyzed to determine the percent of signal associated with unmodified FGFR1 or FGFR3 at each time point. Next, the percent of the signal associated with the covalent modification was determined. Third, the average nonmodified “DMSO Control” signal was used to normalize the modified protein signals at each time point. The percent of unmodified protein was fit to an exponential decay model where A0 is the Percent Unmodified at the start of the reaction, and kobs is the observed rate constant over the time period.

[7] = biological target: FGFR3 (SEQ ID NO: 5, amino acids 449-759) (Homo sapiens (Human), UniProt P22607); assay: LC/MS FGFR3 kobs assay (covalent protein modification); format: binding; conditions: 500 nM FGFR3, 3 μM compound
How it was run: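 The observed rate constant kobs comes from an exponential decay fit of percent unmodified kinase over time. Covalent modification was quantified by Q-TOF LC/MS of formic acid-quenched samples, normalized against DMSO controls.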

Chain of recombinant human FGFR2 cytoplasmic domain (amino acids 403-822) (P21802 402-821): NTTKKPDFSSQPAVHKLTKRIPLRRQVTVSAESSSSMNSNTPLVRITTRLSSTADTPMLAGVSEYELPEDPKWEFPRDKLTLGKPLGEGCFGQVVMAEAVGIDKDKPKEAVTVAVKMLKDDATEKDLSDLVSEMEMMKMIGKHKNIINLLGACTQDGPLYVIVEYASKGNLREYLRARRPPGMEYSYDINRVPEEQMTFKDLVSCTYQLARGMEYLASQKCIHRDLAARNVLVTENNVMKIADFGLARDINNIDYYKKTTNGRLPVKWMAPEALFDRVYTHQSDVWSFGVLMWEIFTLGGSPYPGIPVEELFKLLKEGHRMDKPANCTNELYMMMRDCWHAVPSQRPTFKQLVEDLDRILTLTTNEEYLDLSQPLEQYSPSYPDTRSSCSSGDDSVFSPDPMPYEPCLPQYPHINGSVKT
Chain of dephosphorylated FGFR1 (SEQ ID NO: 1, amino acids 458 to 765) (P11362 458-765): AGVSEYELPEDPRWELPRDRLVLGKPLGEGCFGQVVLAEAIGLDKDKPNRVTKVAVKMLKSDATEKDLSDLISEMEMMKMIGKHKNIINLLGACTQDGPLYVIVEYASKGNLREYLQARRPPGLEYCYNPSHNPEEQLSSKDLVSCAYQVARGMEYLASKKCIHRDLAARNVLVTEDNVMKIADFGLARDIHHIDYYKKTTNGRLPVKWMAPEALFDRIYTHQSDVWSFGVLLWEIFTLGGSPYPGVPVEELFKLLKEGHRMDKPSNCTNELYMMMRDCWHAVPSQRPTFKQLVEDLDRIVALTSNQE
Chain of FGFR1 (SEQ ID NO: 1, amino acids 458-765) (P11362 458-765): as above
Chain of recombinant human FGFR3 (amino acids R397-T806) (P22607 397-806): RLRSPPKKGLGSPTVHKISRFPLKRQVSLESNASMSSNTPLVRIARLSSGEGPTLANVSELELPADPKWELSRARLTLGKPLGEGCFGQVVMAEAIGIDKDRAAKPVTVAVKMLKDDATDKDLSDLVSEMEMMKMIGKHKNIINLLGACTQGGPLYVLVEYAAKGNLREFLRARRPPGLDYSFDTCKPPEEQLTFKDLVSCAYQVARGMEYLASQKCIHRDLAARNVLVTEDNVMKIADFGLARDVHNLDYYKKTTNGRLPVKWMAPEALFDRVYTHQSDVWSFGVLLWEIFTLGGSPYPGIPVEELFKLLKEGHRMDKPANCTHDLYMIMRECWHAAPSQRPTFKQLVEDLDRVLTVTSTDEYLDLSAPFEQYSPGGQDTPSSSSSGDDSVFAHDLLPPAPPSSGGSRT
Chain of FGFR3 (SEQ ID NO: 5, amino acids 449-759) (P22607 449-759): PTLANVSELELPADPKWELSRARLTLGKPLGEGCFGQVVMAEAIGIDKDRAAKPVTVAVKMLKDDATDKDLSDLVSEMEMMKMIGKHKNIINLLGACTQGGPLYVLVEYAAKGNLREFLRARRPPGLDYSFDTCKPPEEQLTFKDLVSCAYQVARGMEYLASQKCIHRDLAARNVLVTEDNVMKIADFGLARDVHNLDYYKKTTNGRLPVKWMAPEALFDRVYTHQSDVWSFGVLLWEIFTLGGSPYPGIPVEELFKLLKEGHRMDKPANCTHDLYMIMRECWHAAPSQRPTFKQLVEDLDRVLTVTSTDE
Chain of phosphorylated FGFR3 (SEQ ID NO: 5, amino acids 449 to 759) (P22607 449-759): as above
Chain of recombinant human FGFR1 catalytic domain (amino acids 308-731) (P11362 other isoform, or with tags, fused parts or gaps): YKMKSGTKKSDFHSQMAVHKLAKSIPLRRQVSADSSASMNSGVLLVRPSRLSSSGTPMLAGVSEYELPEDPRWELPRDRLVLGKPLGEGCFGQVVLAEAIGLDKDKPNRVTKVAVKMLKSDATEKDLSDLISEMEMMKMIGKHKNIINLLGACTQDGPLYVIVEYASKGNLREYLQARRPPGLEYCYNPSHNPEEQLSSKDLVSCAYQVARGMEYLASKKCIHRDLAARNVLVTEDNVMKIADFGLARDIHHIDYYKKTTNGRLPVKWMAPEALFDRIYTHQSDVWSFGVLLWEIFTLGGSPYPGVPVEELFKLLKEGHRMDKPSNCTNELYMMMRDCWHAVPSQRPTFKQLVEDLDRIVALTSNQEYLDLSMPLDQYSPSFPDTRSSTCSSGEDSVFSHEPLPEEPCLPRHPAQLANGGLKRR

Row | IC50 [1] | IC50 [2] | IC50 [3] | IC50 [4] | IC50 [5] | FGFR1 Enz kobs [6] | FGFR3 Enz kobs [7] | Compound
1 | 120 nM | 22 nM | 39 nM | 14 nM | 13 nM | 0.00081 min⁻¹ | 0.002 min⁻¹ | C=CC(=O)N1CCC(C(=O)N2CC(n3cc(-c4cc(OC)c5c(C#N)cnn5c4)cn3)C2)CC1 [Example 75, 6-(1-(1-(1-acryloylpiperidine-4-carbonyl)azetidin-3-yl)-1H-pyrazol-4-yl)-4-methoxypyrazolo[1,5-a]pyridine-3-carbonitrile]
2 | 174 nM | 22 nM | 26 nM | 7 nM | 7 nM | 0.00024 min⁻¹ | 0.00111 min⁻¹ | C=CC(=O)N[C@H]1C[C@@H](C(=O)N2CC(n3cc(-c4cc(OC)c5c(C#N)cnn5c4)cn3)C2)C1 [Example 80, N-((1s,3s)-3-(3-(4-(3-cyano-4-methoxypyrazolo[1,5-a]pyridin-6-yl)-1H-pyrazol-1-yl)azetidine-1-carbonyl)cyclobutyl)acryl-amide]
3 | 47 nM | 5 nM | 13 nM | 5 nM | 3 nM | 0.00044 min⁻¹ | 0.00353 min⁻¹ | C=CC(=O)N1CCN(c2ccc(-c3cc(OC)c4c(C#N)cnn4c3)cc2)CC1 [Example 99, 6-(4-(4-acryloylpiperazin-1-yl)phenyl)-4-methoxypyrazolo[1,5-a]pyridine-3-carbonitrile]
4 | 56 nM | 8 nM | 12 nM | 4 nM | 6 nM | 0.0006 min⁻¹ | 0.00352 min⁻¹ | C=CC(=O)N1CCC(C(=O)N2CCN(c3ccc(-c4cc(OC)c5c(C#N)cnn5c4)cn3)CC2)CC1 [Example 109, 6-(6-(4-(1-acryloylpiperidine-4-carbonyl)piperazin-1-yl)pyridin-3-yl)-4-methoxypyrazolo[1,5-a]pyridine-3-carbonitrile]
5 | 58 nM | 8 nM | 16 nM | 5 nM | 6 nM | 0.00068 min⁻¹ | 0.00626 min⁻¹ | C=CC(=O)N1CC[C@@H](C(=O)N2CCN(c3ccc(-c4cc(OC)c5c(C#N)cnn5c4)cn3)CC2)C1 [Example 110, (R)-6-(6-(4-(1-acryloylpyrrolidine-3-carbonyl)piperazin-1-yl)pyridin-3-yl)-4-methoxypyrazolo[1,5-a]pyridine-3-carbonitrile]
6 | 2930 nM | 160 nM | 119 nM | 63 nM | 264 nM | 0.00274 min⁻¹ | 0.02206 min⁻¹ | C=CC(=O)N1CC(C(=O)N2CCN(c3ncc(-c4cc(OC)c5c(C#N)cnn5c4)cn3)CC2)C1 [Example 133, 6-(2-(4-(1-acryloylazetidine-3-carbonyl)piperazin-1-yl)pyrimidin-5-yl)-4-methoxypyrazolo[1,5-a]pyridine-3-carbonitrile]
7 | 229 nM | 33 nM | 39 nM | 6 nM | 4 nM | 0.00121 min⁻¹ | 0.00455 min⁻¹ | COc1cc(-c2cnn(C3CN(CC4CN(C(=O)/C=C/CN5CCCCC5)C4)C3)c2)cn2ncc(C#N)c12 [Example 149, (E)-4-methoxy-6-(1-(1-((1-(4-(piperidin-1-yl)but-2-enoyl)azetidin-3-yl)methyl)azetidin-3-yl)-1H-pyrazol-4-yl)pyrazolo[1,5-a]pyridine-3-carbonitrile]
8 | 800 nM | 223 nM | 62 nM | 18 nM | 15 nM | 0.00005 min⁻¹ | 0.0002 min⁻¹ | C=CC(=O)NC1CCN(C(=O)c2ccc(-c3cc(OC)c4c(C#N)cnn4c3)cc2)CC1 [Example 165, N-(1-(4-(3-cyano-4-methoxypyrazolo [1,5-a]pyridin-6-yl)benzoyl)piperidin-4-yl)acrylamide]
